Consider 2 compounds from PubChem BioAssay (NCI).

Molecules are shown by their SMILES.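 Following 48 hours of exposure in 96-well plates, responses at five concentrations were used to interpolate endpoints linearly. GI50: concentration for 50% inhibition of growth. TGI: concentration producing complete growth inhibition.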

Some test systems named below: K-562 leukemia; MOLT-4 leukemia; NCI-H460 lung; OVCAR-4 ovarian; OVCAR-5 ovarian; RPMI-8226 leukemia; SF-268 CNS; SF-539 CNS; U251 CNS; UO-31 renal.
Assay in all cases: NCI-60 cell line screen, 48 h

In the case of `C=C(C(=O)OC)[C@@H]1CC2OC1C(=O)C(C)CCC/C(C)=C/CC[C@@]2(C)O` (some centres undefined), the GI50 was 18.9 µM with K-562 leukemia; 17.2 µM in the experiment on MOLT-4 leukemia; 50.5 µM in the experiment on NCI-H460 lung; 37.9 µM in the experiment with OVCAR-4 ovarian; 76.7 µM in the experiment on OVCAR-5 ovarian; 16.8 µM in the experiment on RPMI-8226 leukemia. Also, the GI50 was 39.4 µM in the experiment with SF-268 CNS, 18.4 µM with SF-539 CNS, 36.7 µM in the experiment on U251 CNS and 16.4 µM with UO-31 renal. Besides, the TGI with K-562 leukemia was 43.4 µM; in the experiment with MOLT-4 leukemia, 54.5 µM; with NCI-H460 lung it was greater than 100 µM; with OVCAR-4 ovarian, greater than 100 µM; in the experiment on OVCAR-5 ovarian, greater than 100 µM; with RPMI-8226 leukemia, 61.2 µM. For the same compound, the TGI is greater than 100 µM in the experiment with SF-268 CNS, 36.4 µM in the experiment on SF-539 CNS, greater than 100 µM in the experiment on U251 CNS and 31.2 µM with UO-31 renal.
Take `CC(=O)c1c[nH]c2ccc(-c3ccnc(Nc4ccc(NC(=O)C5CCCC5)c(CN5CCOCC5)c4)n3)cc12`: the GI50 in the experiment with K-562 leukemia was 0.041 µM; in the experiment on MOLT-4 leukemia, 0.0287 µM; in the experiment with NCI-H460 lung it was 0.033 µM; in the experiment on OVCAR-4 ovarian, 0.0453 µM; in the experiment with OVCAR-5 ovarian, 0.0296 µM; with RPMI-8226 leukemia it was 0.045 µM. The GI50 in the experiment on SF-268 CNS was 0.033 µM; with SF-539 CNS, 0.0229 µM; in the experiment on U251 CNS, 0.0316 µM; in the experiment with UO-31 renal it was 0.0273 µM. Besides, the TGI with K-562 leukemia was greater than 100 µM; in the experiment with MOLT-4 leukemia, 0.474 µM; with NCI-H460 lung it was 0.125 µM; in the experiment on OVCAR-4 ovarian, 0.573 µM; in the experiment on OVCAR-5 ovarian it was 0.222 µM; in the experiment on RPMI-8226 leukemia it was 0.262 µM. For the same compound, the TGI with SF-268 CNS was found to be 0.159 µM; with SF-539 CNS it was 0.0681 µM; with UO-31 renal it was 0.108 µM.
